Laboratory results as given in patent publication US20240390487A1, “TLR AGONISTS FOR REDUCING ACTIVATION-INDUCED PD-1 EXPRESSION ON T CELLS AND METHODS OF USE” (WISCONSIN ALUMNI RESEARCH FOUNDATION, priority 2016, published 2024).
“Also recorded” adds a separate entry of the source.

System: OT-1 transgenic splenocytes
Test: In vitro stimulation of OT-1 splenocytes with peptide antigen in the presence of TLR agonists, surface markers by flow cytometry
Type: cell-based, mice
Set-up: key to 4-1BB / PD-1 / LAG3 / CD160 / CD244.2 / BTLA / VISTA: “+” means increase; “−” means decrease; “=” means no change; “=/+” or “=/−” means the change is there but not significant; “=/+” or “=/−” means the change is there but not significant
Details: for 4-1BB / BTLA / CD160 / CD244.2 / LAG3 / PD-1 / VISTA: OT-1 splenocytes, high affinity antigen plus TLR agonist, versus antigen alone; for T cell activation measured by 4-1BB / PD-1 expression on activated T cells / levels of tested checkpoint markers (BTLA, VISTA, CD160, CD244.2): in words; for T cell activation measured by 4-1BB: SIINFEKL plus TLR agonist; for PD-1 expression on activated T cells: SIINFEKL plus TLR agonist versus antigen alone, up to 4 days; for levels of tested checkpoint markers (BTLA, VISTA, CD160, CD244.2): high affinity antigen plus TLR agonist versus no TLR agonist
Protocol: T cell activation was measured by the levels of marker 4-1BB (a/k/a CD137, a member of the TNF receptor superfamily). The level of PD-1 expression was also assessed in these cells (FIG. 1B).
There was no difference in LAG3 expression between the control cells and cells treated with any of the assayed TLR agonists.
OT-1 transgenic splenocytes were treated with high affinity antigen in combination with Pam3CSK4 (TLR1 and 2 agonist), Gardiquimod (TLR7 agonist) or no TLR agonist and the levels of different checkpoint markers or T cell stimulation (measured by 4-1BB, FIG. 5) were assayed. The checkpoint markers BTLA (FIG. 6), VISTA (FIG. 7), CD160 (FIG. 8) and CD244.2 (FIG. 9) were assayed.
TLR stimulation at the time of T-cell activation in vitro affects expression of PD-1. Given that CpG-rich DNA is a TLR9 agonist and Lm is a TLR2 agonist, we questioned whether TLR stimulation with different ligands could similarly affect expression of different T-cell checkpoint inhibitors. […] OT-1 splenocytes were stimulated in vitro with peptides of different affinity for MHC class I (high-affinity SIINFEKL peptide (SEQ ID NO:1, OVA), moderate-affinity SIINTEKL peptide (SEQ ID NO:2, FT), or low-affinity SIINFEKP peptide (SEQ ID NO:7, LP)), alone or in the presence of different TLR ligands (TLR 1/2 (Pam3CSK4), TLR 3 (Poly I:C), TLR 4 (MPLAs), TLR 7 (Gardiquimod), TLR 7/8 (R848), or TLR 9 (ODN1826)). […] Similarly, LAG-3 expression increased by day 3, but was not affected by the presence of different TLR ligands. […] This reduction in PD-1 expression was observed most with the high-affinity SIINFEKL (SEQ ID NO:1) epitope, but also observed following activation with lower affinity epitopes. Given these findings, we evaluated expression of multiple other T-cell checkpoint molecules following T-cell activation in the presence of TLR ligands. […] Cytotoxic T-lymphocyte-associated protein 4 (CTLA-4) expression, however, was increased in the presence of TLR1/2 agonist. Similar results were found activating OT-1 cells with the lower affinity FT (SIINTEKL peptide (SEQ ID NO:2)), LP (SIINFEKP peptide (SEQ ID NO:7), or LY (SIINFEKY, SEQ ID NO:8) epitopes (FIG. 19).
In vitro T-cell stimulation: Spleens were collected from OT-1 mice, processed through a mesh screen, and splenocytes were isolated by centrifugation after red blood cell osmotic lysis with ammonium chloride/[…] lysis buffer (0.15 M NH4Cl, 10 mM KHCO3, 0.1 mM EDTA). Splenocytes were cultured at 2×10^6/mL in RPMI 1640 medium supplemented with L-glutamine, 10% fetal calf serum (FCS), 200 U/mL penicillin/streptomycin, 1% sodium pyruvate, 1% HEPES, 50 μM β-MeOH, and 2 μg/mL of the designated peptide. TLR agonists were all purchased from InvivoGen (San Diego, CA) and added one hour before peptides at the following optimal concentrations based on preliminary studies and previously reported results: 300 ng/ml Pam3CSK4, 10 μg/mL Poly(I:C) HMW, 10 μg/ml MPLAs, 3 μg/ml Gardiquimod, 10 μg/ml R848, 5 μM ODN 1826. At the time points indicated, cells were stained, fixed for 15 min at 4° C. in cytofix (BD Biosciences (BD), San Jose, CA; 554655), and frozen in FCS+10% DMSO. After all time points were collected, cells from all times were thawed, rinsed and resuspended in PBS+3% FCS+1 mM EDTA and analyzed by flow cytometry. Cells were stained for 30 min at 4° C. in a 1:4 dilution of brilliant stain buffer (BD 563794) in PBS+3% FCS+1 mM EDTA. In order to assess co-stimulation, blocking antibodies for CD80 (0.6 μg/mL), CD86 (0.25 μg/mL) or OX40L (0.6 μg/mL) were added 1 hour prior to antigen.

| Compound | 4-1BB | BTLA | CD160 | CD244.2 | LAG3 | PD-1 | VISTA | T cell activation measured by 4-1BB | PD-1 expression on activated T cells | levels of tested checkpoint markers (BTLA, VISTA, CD160, CD244.2) | PD-1 expression on activated T cells (listed as TLR4) | CTLA-4 expression (OT-1 T cells activated with SIINFEKL in the presence of TLR ligand) | PD-1 expression on activated T cells (listed as TLR3) |
| --- | --- | --- | --- | --- | --- | --- | --- | --- | --- | --- | --- | --- | --- |
| CCNCc1nc2c(N)nc3ccccc3c2n1CC(C)(C)O [Gardiquimod] | = | =/− | − | =/− | = | − | = | activated | expressed low levels of PD-1; also recorded: significantly reduced | did not affect |  |  |  |
| Monophosphoryl Lipid A [MPLAs] | = |  |  |  | = | = |  |  | did not significantly reduce |  | did not lead to PD-1 downregulation |  |  |
| Pam3CSK4 | = | =/− | − | = | = | − | − | activated | expressed low levels of PD-1; also recorded: significantly reduced | did not affect |  | increased |  |
| Poly(I:C) [PolyI:C] | = |  |  |  | =/+ | =/− |  |  | did not significantly reduce |  |  |  | did not lead to decreased PD-1 expression |
